Results: patent US20210010053A1, “ASSAYS FOR IMPROVING AUTOMATED ANTIMICROBIAL SUSCEPTIBILITY TESTING ACCURACY” (SELUX DIAGNOSTICS, INC., priority 2019, published 2021)

Key:
E cloacae (IMP) = conditions: 0.01 mM EDTA added to Solution 4, vacuum dried, 3 hours of incubation
Description: (§1) Example 9. […] Multiple different bacterial strains listed in Table 7 were inoculated into each of 3 wells.

E cloacae (NDM) = conditions: 0.01 mM EDTA added to Solution 4, vacuum dried, 3 hours of incubation
Description: as §1

E coli 25922 = conditions: E coli 25922, no carbapenemase; 0.01 mM EDTA added to Solution 4, vacuum dried; 3 hours of incubation
Description: as §1

K pneumoniae (KPC) = conditions: 0.01 mM EDTA added to Solution 4, vacuum dried, 3 hours of incubation
Description: as §1

K pneumoniae (NDM) = conditions: 0.01 mM EDTA added to Solution 4, vacuum dried, 3 hours of incubation
Description: as §1

M morganii (KPC) = conditions: 0.01 mM EDTA added to Solution 4, vacuum dried, 3 hours of incubation
Description: as §1

M morganii (NDM) = conditions: 0.01 mM EDTA added to Solution 4, vacuum dried, 3 hours of incubation
Description: as §1

beta lactamase = assay: beta-lactamase inhibitor assay with nitrocefin probe; format: cell-based; conditions: 4μg/mL inhibitor, 0.25 mg/mL nitrocefin, 35° C., 4 hours, absorbance 490 nm, FIG. 1
Protocol: Example 1. Microbes were prepared by diluting colonies into saline to reach a McFarland value of 0.5, which was verified using a spectrophotometer. This was diluted 1:20 into saline and 50 μI of inoculum was added to wells of a 384-well plate. For each strain, 25 μI of solutions containing either 0.25 mg/mL nitrocefin alone (Nitro), 0.25 mg/mL nitrocefin and 4μg/mL clauvulanate (Nitro Clay), or 0.25 mg/mL nitrocefin and 4μg/mL tazobactam (Nitro Tazo) were added to duplicate wells. Inoculated plates were incubated at 35° C., shaking at 150 rpm for 4 hours. Absorbance was read at 490 nm and values shown in FIG. 1 are the absorbance in the indicated condition minus the absorbance from microbial inoculum alone without nitrocefin. A greater value indicates microbial ability to degrade nitrocefin, and thus, the presence of a beta lactamase. A reduction in absorbance value in the presence of an inhibitor indicates the beta lactamase present is sensitive to the inhibitor. […] Further, the inhibitors are both active against each of the strains with known beta lactamases.

Row | SMILES | Carba Test with EDTA (E cloacae (IMP)) | Carba Test with EDTA (E cloacae (NDM)) | Carba Test with EDTA (E coli 25922) | Carba Test with EDTA (K pneumoniae (KPC)) | Carba Test with EDTA (K pneumoniae (NDM)) | Carba Test with EDTA (M morganii (KPC)) | Carba Test with EDTA (M morganii (NDM)) | activity of inhibitor against strains with known beta lactamases (reduction in nitrocefin absorbance) (beta lactamase)
1 | O=C(O)CN(CCN(CC(=O)O)CC(=O)O)CC(=O)O [EDTA, Ethylenediaminetetraacetic acid] | −1816.5 | −2084.5 | −1541.5 | 3705.5 | −2222.5 | 1288.5 | −1923.5 | –
2 | O=C(O)[C@H]1/C(=C/CO)O[C@@H]2CC(=O)N21 [clauvulanate] | – | – | – | – | – | – | – | active
3 | C[C@]1(Cn2ccnn2)[C@H](C(=O)O)N2C(=O)C[C@H]2S1(=O)=O [tazobactam] | – | – | – | – | – | – | – | active
